In patent US20240309007A1, “CRYSTALLINE FORMS OF 3-{4-[(2R)-2-AMINOPROPOXY]PHENYL}-N-[(1R)- 1-(3-FLUOROPHENYL) ETHYL]IMIDAZO[1,2-B]PYRIDAZIN-6-AMINE AND SALTS THEREOF” (ANHEART THERAPEUTICS (HANGZHOU) CO., LTD., priority 2021, published 2024):
Values after ≈ are worked out from the molar mass of the structure shown.

Assays:
Format in all cases: physicochemical
[1] = Long-term stability test, 25° C./60% RH, three years; conditions: for Appearance / Assay (anhydrous and solvent free basis) / Individual unspecified impurity (Maximum) / Total impurities / Water content / deF-6051: 25° C. ± 2° C./60 ± 5% RH
Experimental: The long-term stability test of the crystalline form A of Compound 1 adipate was performed by storing a sample at 25°±2° C./[…] for three years.

[2] = Solubility of the crystalline form in buffers, SGF, FaSSIF, FeSSIF and water at 37° C. (HPLC; XRPD of undissolved solid); conditions: for solubility at 2 h / solubility at 24 h: 37 °C, thermodynamic from solid
Excerpt: (1) a KCl/HCl buffer solution with a pH of 1.0, (2) a potassium hydrogen phthalate buffer solution with a pH of 3.0, (3) a sodium acetate trihydrate buffer solution with a pH of 4.5, (4) a potassium dihydrogen phosphate buffer solution with a pH of 6.0, (5) a potassium dihydrogen phosphate buffer solution with a pH of 7.5, (6) SGF (simulated gastric fluid), (7) FaSSIF (fasted state simulated intestinal fluids, pH=6.5), (8) FeSSIF (fed state simulated intestinal fluids, pH=5.0), and (9) water. Each mixture was then stirred in a water bath at 37° C. After equilibrated for 2 hours and 24 hours, concentrations (mg/mL) of the crystal in the mixture were measured by HPLC and the undissolved solid was evaluated by XRPD.

[3] = Accelerated stability test, 40° C./75% RH, six months; conditions: for Appearance / Assay Adipic acid (potentiometric titration) / Assay DS-6051a (HPLC)/ (anhydrous and solvent free basis) / Related substances (UPLC) Total impurities / Water content (KF) / Related substances (UPLC) Unspecified individual impurity / Crystal form (XRPD): 40° C. ± 2° C./75 ± 5% RH; for Crystal form (XRPD): consistent with reference standard
Experimental: The accelerated stability test of the crystalline form A of Compound 1 adipate was performed by storing a sample at 40° C.±2° C./[…] for six months.

[4] = FaSSIF (fasted state simulated intestinal fluid), pH 6.5, fassif
[5] = FeSSIF (fed state simulated intestinal fluid), pH 5, fessif
[6] = KCl/HCl buffer, pH 1, simulated gastric fluid
[7] = SGF (simulated gastric fluid), 37° C.
[8] = SGF (simulated gastric fluid), simulated gastric fluid
[9] = potassium dihydrogen phosphate buffer pH 6.0, 37° C.
[10] = potassium dihydrogen phosphate buffer pH 7.5, 37° C.
[11] = potassium dihydrogen phosphate buffer, pH 6, aqueous buffer
[12] = potassium dihydrogen phosphate buffer, pH 7.5, aqueous buffer
[13] = potassium hydrogen phthalate buffer pH 3.0, 37° C.
[14] = potassium hydrogen phthalate buffer, pH 3, aqueous buffer
[15] = sodium acetate trihydrate buffer pH 4.5, 37° C.
[16] = sodium acetate trihydrate buffer, pH 4.5, aqueous buffer

- stability (in words) [1]: superior stability
- Appearance ([1]; 0 M): White
- Assay (anhydrous and solvent free basis) ([1]; 0 M): 100.0%
- Individual unspecified impurity (Maximum) ([1]; 0 M): 0.09%
- Total impurities ([1]; 0 M): 0.61%
- Water content ([1]; 0 M): 0.07%
- deF-6051 ([1]; 0 M): 0.46%
- Appearance ([1]; 3 M): White
- Assay (anhydrous and solvent free basis) ([1]; 3 M): 100.0%
- Individual unspecified impurity (Maximum) ([1]; 3 M): 0.09%
- Total impurities ([1]; 3 M): 0.61%
- Water content ([1]; 3 M): 0.08%
- deF-6051 ([1]; 3 M): 0.46%
- Appearance ([1]; 6 M): White
- Assay (anhydrous and solvent free basis) ([1]; 6 M): 100.0%
- Individual unspecified impurity (Maximum) ([1]; 6 M): 0.09%
- Total impurities ([1]; 6 M): 0.54%
- Water content ([1]; 6 M): 0.11%
- deF-6051 ([1]; 6 M): 0.45%
- Appearance ([1]; 9 M): White
- Assay (anhydrous and solvent free basis) ([1]; 9 M): 99.9%
- Individual unspecified impurity (Maximum) ([1]; 9 M): 0.09%
- Total impurities ([1]; 9 M): 0.60%
- Water content ([1]; 9 M): 0.08%
- deF-6051 ([1]; 9 M): 0.46%
- Appearance ([1]; 12 M): White
- Assay (anhydrous and solvent free basis) ([1]; 12 M): 100.2%
- Individual unspecified impurity (Maximum) ([1]; 12 M): 0.09%
- Total impurities ([1]; 12 M): 0.55%
- Water content ([1]; 12 M): 0.09%
- deF-6051 ([1]; 12 M): 0.46%
- Appearance ([1]; 18 M): White
- Assay (anhydrous and solvent free basis) ([1]; 18 M): 100.2%
- Individual unspecified impurity (Maximum) ([1]; 18 M): 0.09%
- Total impurities ([1]; 18 M): 0.55%
- Water content ([1]; 18 M): 0.06%
- deF-6051 ([1]; 18 M): 0.46%
- Appearance ([1]; 24 M): White
- Assay (anhydrous and solvent free basis) ([1]; 24 M): 99.7%
- Individual unspecified impurity (Maximum) ([1]; 24 M): 0.09%
- Total impurities ([1]; 24 M): 0.54%
- Water content ([1]; 24 M): 0.07%
- deF-6051 ([1]; 24 M): 0.45%
- Appearance ([1]; 36 M): White
- Assay (anhydrous and solvent free basis) ([1]; 36 M): 100.0%
- Individual unspecified impurity (Maximum) ([1]; 36 M): 0.09%
- Total impurities ([1]; 36 M): 0.53%
- Water content ([1]; 36 M): 0.06%
- deF-6051 ([1]; 36 M): 0.44%
- time stable at room temperature in a sealed container ([1]; room temperature, sealed container): at least 36 months
- solubility at 2 h [2, 4]: 331 µg/mL (≈ 0.816 mM)
- solubility at 24 h [2, 4]: 225 µg/mL (≈ 0.555 mM)
- XRPD of undissolved solid ([2]; FaSSIF (pH=6.5), 37° C.): changed
- pH after 24 hours ([2]; FaSSIF (pH=6.5), 37° C.): 5.008
- solubility at 2 h [2, 5]: 493 µg/mL (≈ 1.22 mM)
- solubility at 24 h [2, 5]: 143 µg/mL (≈ 0.353 mM)
- XRPD of undissolved solid ([2]; FeSSIF (pH=5.0), 37° C.): Form A
- pH after 24 hours ([2]; FeSSIF (pH=5.0), 37° C.): 4.205
- XRPD of undissolved solid ([2]; KCl/HCl buffer pH 1.0, 37° C.): changed
- pH after 24 hours ([2]; KCl/HCl buffer pH 1.0, 37° C.): 3.746
- solubility at 2 h [2, 6]: 20400 µg/mL (≈ 50.4 mM)
- solubility at 24 h [2, 6]: 17800 µg/mL (≈ 43.9 mM)
- XRPD of undissolved solid [2, 7]: changed
- pH after 24 hours [2, 7]: 5.281
- solubility at 2 h [2, 8]: 15600 µg/mL (≈ 38.5 mM)
- solubility at 24 h [2, 8]: 16000 µg/mL (≈ 39.4 mM)
- solubility (in words) ([2]; pH 1): superior solubility
- XRPD of undissolved solid [2, 9]: Form A
- pH after 24 hours [2, 9]: 5.055
- XRPD of undissolved solid [2, 10]: changed
- pH after 24 hours [2, 10]: 5.570
- solubility at 2 h [2, 11]: 2340 µg/mL (≈ 5.76 mM)
- solubility at 24 h [2, 11]: 1700 µg/mL (≈ 4.2 mM)
- solubility at 2 h [2, 12]: 597 µg/mL (≈ 1.47 mM)
- solubility at 24 h [2, 12]: 419 µg/mL (≈ 1.03 mM)
- XRPD of undissolved solid [2, 13]: changed
- pH after 24 hours [2, 13]: 4.418
- solubility at 2 h [2, 14]: 1350 µg/mL (≈ 3.32 mM)
- solubility at 24 h [2, 14]: 852 µg/mL (≈ 2.1 mM)
- XRPD of undissolved solid [2, 15]: Form A
- pH after 24 hours [2, 15]: 4.541
- solubility at 2 h [2, 16]: 2840 µg/mL (≈ 7 mM)
- solubility at 24 h [2, 16]: 2880 µg/mL (≈ 7.12 mM)
- XRPD of undissolved solid ([2]; water, 37° C.): Form A
- pH after 24 hours ([2]; water, 37° C.): 5.115
- solubility at 2 h ([2]; water): 1610 µg/mL (≈ 3.96 mM)
- solubility at 24 h ([2]; water): 1410 µg/mL (≈ 3.48 mM)
- stability (in words) [3]: superior stability
- Appearance ([3]; 0 M): White
- Assay Adipic acid (potentiometric titration) ([3]; 0 M): 26.2%
- Assay DS-6051a (HPLC)/ (anhydrous and solvent free basis) ([3]; 0 M): 99.5%
- Related substances (UPLC) Total impurities ([3]; 0 M): 0.05%
- Water content (KF) ([3]; 0 M): 0.2%
- Related substances (UPLC) Unspecified individual impurity ([3]; 0 M, RRT1.48): 0.05%
- Crystal form (XRPD) ([3]; 0 M): conform
- Appearance ([3]; 1 M): White
- Assay Adipic acid (potentiometric titration) ([3]; 1 M): 26.5%
- Assay DS-6051a (HPLC)/ (anhydrous and solvent free basis) ([3]; 1 M): 100.1%
- Related substances (UPLC) Total impurities ([3]; 1 M): <0.05%
- Related substances (UPLC) Unspecified individual impurity ([3]; 1 M): <0.05%
- Water content (KF) ([3]; 1 M): 0.1%
- Crystal form (XRPD) ([3]; 1 M): conform
- Appearance ([3]; 2 M): White
- Assay Adipic acid (potentiometric titration) ([3]; 2 M): 26.4%
- Assay DS-6051a (HPLC)/ (anhydrous and solvent free basis) ([3]; 2 M): 99.6%
- Related substances (UPLC) Total impurities ([3]; 2 M): <0.05%
- Related substances (UPLC) Unspecified individual impurity ([3]; 2 M): <0.05%
- Water content (KF) ([3]; 2 M): 0.1%
- Crystal form (XRPD) ([3]; 2 M): conform
- Appearance ([3]; 3 M): White
- Assay Adipic acid (potentiometric titration) ([3]; 3 M): 26.2%
- Assay DS-6051a (HPLC)/ (anhydrous and solvent free basis) ([3]; 3 M): 99.5%
- Related substances (UPLC) Total impurities ([3]; 3 M): <0.05%
- Related substances (UPLC) Unspecified individual impurity ([3]; 3 M): <0.05%
- Water content (KF) ([3]; 3 M): 0.1%
- Crystal form (XRPD) ([3]; 3 M): conform
- Appearance ([3]; 6 M): White
- Assay Adipic acid (potentiometric titration) ([3]; 6 M): 26.2%
- Assay DS-6051a (HPLC)/ (anhydrous and solvent free basis) ([3]; 6 M): 99.0%
- Related substances (UPLC) Total impurities ([3]; 6 M): <0.05%
- Related substances (UPLC) Unspecified individual impurity ([3]; 6 M): <0.05%
- Water content (KF) ([3]; 6 M): 0.1%
- Crystal form (XRPD) ([3]; 6 M): conform
SMILES: C[C@@H](N)COc1ccc(-c2cnc3ccc(N[C@H](C)c4cccc(F)c4)nn23)cc1 [crystalline form A of Compound 1 adipate, 3-{4-[(2R)-2-aminopropoxy]phenyl}-N-[(1R)-1-(3-fluorophenyl)ethyl]imidazo[1,2-b]pyridazin-6-amine]
